Assay results from the supplement of paper PMC13380429.

Assays:
Conditions in all cases: 72 h
U2OS [1] = assay: drug sensitivity score (DSS) for viability; higher = more toxic; extreme values may be limits of the assay
Caco-2 [2] = assay: as above
HepG2 [3] = assay: as above
Calu-3 [4] = assay: as above
Vero E6 [5] = assay: as above
U2OS [6] = assay: relative viability EC50 (midpoint between 100% and the lowest measured viability); higher = less toxic
Caco-2 [7] = assay: as above
HepG2 [8] = assay: as above
Calu-3 [9] = assay: as above
Vero E6 [10] = assay: as above
U2OS [11] = assay: cell viability relative to DMSO; higher = less toxic
Caco-2 [12] = assay: as above
HepG2 [13] = assay: as above
Calu-3 [14] = assay: as above
Vero E6 [15] = assay: as above

Structure (SMILES) | drug sensitivity score (U2OS [1]) | drug sensitivity score (Caco-2 [2]) | drug sensitivity score (HepG2 [3]) | drug sensitivity score (Calu-3 [4]) | drug sensitivity score (Vero E6 [5]) | relative viability EC50 (U2OS [6]) | relative viability EC50 (Caco-2 [7]) | relative viability EC50 (HepG2 [8]) | relative viability EC50 (Calu-3 [9]) | relative viability EC50 (Vero E6 [10]) | cell viability (U2OS [11]; 1 nM) | cell viability (U2OS [11]; 10 nM) | cell viability (U2OS [11]; 100 nM) | cell viability (U2OS [11]; 1000 nM) | cell viability (U2OS [11]; 10000 nM) | cell viability (Caco-2 [12]; 1 nM) | cell viability (Caco-2 [12]; 10 nM) | cell viability (Caco-2 [12]; 100 nM) | cell viability (Caco-2 [12]; 1000 nM) | cell viability (Caco-2 [12]; 10000 nM) | cell viability (HepG2 [13]; 1 nM) | cell viability (HepG2 [13]; 10 nM) | cell viability (HepG2 [13]; 100 nM) | cell viability (HepG2 [13]; 1000 nM) | cell viability (HepG2 [13]; 10000 nM) | cell viability (Calu-3 [14]; 1 nM) | cell viability (Calu-3 [14]; 10 nM) | cell viability (Calu-3 [14]; 100 nM) | cell viability (Calu-3 [14]; 1000 nM) | cell viability (Calu-3 [14]; 10000 nM) | cell viability (Vero E6 [15]; 1 nM) | cell viability (Vero E6 [15]; 10 nM) | cell viability (Vero E6 [15]; 100 nM) | cell viability (Vero E6 [15]; 1000 nM) | cell viability (Vero E6 [15]; 10000 nM)
CCCCCCOC(=O)CCC(=O)CN [hexaminolevulinate] | 0 | 0 | 0 | 0 | 0 | > 10 µM | > 10 µM | > 10 µM | > 10 µM | > 10 µM | 100% | 102% | 98.1% | 103% | 98.4% | 102% | 93.7% | 101% | 104% | 96.6% | 111% | 105% | 99% | 102% | 101% | 93.9% | 101% | 111% | 108% | 104% | 109% | 98% | 104% | 99.2% | 99.5%
C[N+]1(C)[C@@H]2CC[C@H]1C[C@@H](OC(=O)C(O)c1ccccc1)C2 (stereo not given in full) [homatropine-methylbromide] | 0 | 0.2 | 0 | 0 | 0 | > 10 µM | > 10 µM | > 10 µM | > 10 µM | > 10 µM | 96.7% | 101% | 95.2% | 102% | 96.4% | 100% | 90.8% | 99.7% | 106% | 84.2% | 98.7% | 95.3% | 102% | 91.8% | 98.9% | 105% | 108% | 114% | 94.2% | 102% | 101% | 97.5% | 106% | 108% | 98.8%
Oc1ccc(O)cc1 [hydroquinone] | 0 | 0 | 0.3 | 0 | 0 | > 10 µM | > 10 µM | > 10 µM | > 10 µM | > 10 µM | 95.2% | 91% | 95.4% | 89% | 117% | 100% | 97.6% | 94.2% | 104% | 106% | 106% | 92.4% | 94.7% | 100% | 84.6% | 90.5% | 90% | 93.7% | 100% | 113% | 93.3% | 100% | 94.8% | 105% | 111%
O=C(/C=C/c1ccc2c(c1)OCO2)N1CCCCC1 [ilepcimide] | 0 | 0 | 0 | 0 | 0 | > 10 µM | > 10 µM | > 10 µM | > 10 µM | > 10 µM | 98.2% | 94.6% | 98.3% | 95.8% | 97.1% | 96.3% | 104% | 106% | 130% | 102% | 102% | 97.2% | 106% | 112% | 103% | 99.5% | 108% | 106% | 102% | 102% | 91% | 98.1% | 94.2% | 96.6% | 97.7%
Cn1cc(C[C@@H](N)C(=O)O)c2ccccc21 [indoximod] | 0 | 0.1 | 0 | 0 | 0 | > 10 µM | > 10 µM | > 10 µM | > 10 µM | > 10 µM | 102% | 97% | 102% | 99.4% | 103% | 94.5% | 83.8% | 81.7% | 91.7% | 104% | 114% | 97.6% | 102% | 118% | 101% | 107% | 98.7% | 96.3% | 103% | 106% | 104% | 95.4% | 91.6% | 101% | 102%
CCC(NC(C)C)C(O)c1ccc(O)c(O)c1 (stereo not given) [isoetharine] | 0 | 0 | 0 | 0 | 0 | > 10 µM | > 10 µM | > 10 µM | > 10 µM | > 10 µM | 90.2% | 97.3% | 95.1% | 95.4% | 94% | 85.9% | 100% | 118% | 102% | 104% | 102% | 96.7% | 104% | 101% | 102% | 108% | 98.9% | 88.4% | 103% | 95.6% | 93.1% | 91.8% | 92.9% | 91.9% | 102%
O=C(c1ccc(F)cc1)C1CCN(CCn2c(=O)[nH]c3ccccc3c2=O)CC1 [ketanserin] | 0 | 0 | 0 | 0 | 0 | > 10 µM | > 10 µM | > 10 µM | > 10 µM | > 10 µM | 90% | 98.3% | 96.1% | 103% | 106% | 93.1% | 100% | 95.6% | 99.7% | 96.9% | 102% | 95% | 97.3% | 102% | 97.2% | 96.2% | 95.8% | 90.3% | 92.9% | 102% | 96.9% | 94.9% | 97.8% | 101% | 103%
